The values below come from PubChem BioAssay AID720495 (Broad Institute, 2013).

This assay has as its target Protein AF-9 (Homo sapiens) (UniProt P42568). Description: inhibitors of AF4-AF9 protein interaction, dose response, biochemical, cherry-picked samples, plate reader (AID 720495). Conditions: biochemical protein-protein interaction assay; for activity change, negative = inhibition: at 10 µM (top of the series).

Records with an inconclusive call do not appear. The source made the active and inactive calls. How the calls were made is not given here.

Chain of Protein AF-9 (Homo sapiens) (P42568 whole entry, looked up): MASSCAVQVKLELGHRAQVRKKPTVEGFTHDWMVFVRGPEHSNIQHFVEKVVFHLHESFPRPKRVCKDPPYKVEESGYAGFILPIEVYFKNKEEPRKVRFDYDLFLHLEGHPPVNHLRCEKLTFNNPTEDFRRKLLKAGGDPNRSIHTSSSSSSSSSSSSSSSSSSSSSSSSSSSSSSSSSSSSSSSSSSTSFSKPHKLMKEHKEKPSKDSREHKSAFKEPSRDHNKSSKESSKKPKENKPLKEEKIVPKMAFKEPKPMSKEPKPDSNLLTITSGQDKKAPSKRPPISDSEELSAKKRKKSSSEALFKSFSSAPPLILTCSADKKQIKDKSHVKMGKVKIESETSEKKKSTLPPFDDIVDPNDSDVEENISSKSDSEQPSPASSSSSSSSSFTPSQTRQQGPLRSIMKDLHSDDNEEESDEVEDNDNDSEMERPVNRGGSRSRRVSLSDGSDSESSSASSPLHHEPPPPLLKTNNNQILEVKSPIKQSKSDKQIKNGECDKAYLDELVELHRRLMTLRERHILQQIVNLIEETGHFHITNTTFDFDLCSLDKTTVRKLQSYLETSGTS

`CN1CCN(/N=C/c2ccc(-c3ccc([N+](=O)[O-])cc3Cl)o2)CC1`: the AC50 was 9.35 µM.

Regarding `CN(C)c1ccc(/C=C/C=C/c2sc3ccccc3[n+]2C)cc1`, the AC50 is 2.09 µM.

On to `O=C1c2ccccc2-c2onc3ccc(N4CCCC4)c1c23`, for which the AC50 is 5.49 µM.

Consider `CN(C)c1ccc(N=C/C=C2/N(C)c3ccccc3C2(C)C)cc1`, for which the AC50 was 7.5 µM.

Turning to `CCOc1ccc(Nc2ccc([N+](=O)[O-])c3nonc23)cc1`, the “activity change, negative = inhibition” value was “inactive”.

With `CCOC(=O)c1c(-c2ccc(-c3ccccc3)cc2)csc1NC(=O)CNCCN(C)C`, the AC50 is 5.86 µM.

For `Cc1ccc2nc(-c3ccc(NC(=S)NC4CC(C)(C)NC(C)(C)C4)cc3)sc2c1`, the AC50 is 7.34 µM.

As to `COc1ccc(N2CCN(CCCNC(=O)CCC(=O)N3CCOc4ccc(Cl)cc43)CC2)cc1`, the AC50 is 11.5 µM.

Take `O=C(NC1CCCCC1)C(c1cccs1)N(CCCN1CCOCC1)C(=O)c1ccc(-c2ccccc2)[nH]1` (centres undefined): the “activity change, negative = inhibition” value is “inactive”.

`CN1CCN(CCCN2c3ccccc3Sc3ccc(C(F)(F)F)cc32)CC1`: the “activity change, negative = inhibition” value was “inactive”.

As for `COc1cccc(OCC(O)CN2CCC(CN3C(=O)c4cccc5cccc(c45)C3=O)CC2)c1` (centres undefined), the “activity change, negative = inhibition” value is “inactive”.

For the compound `Oc1c(C(c2ccc(Cl)cc2)N2CCCC2)cc(Cl)c2cccnc12` (centres undefined), the “activity change, negative = inhibition” value was “inactive”.

Turning to `Cn1ccc2c(N3CCCCC3)cc3c(c21)C1CCC3C1` (centres undefined), the “activity change, negative = inhibition” value is “inactive”.

Regarding `O=c1[nH]c2ccccc2n1C1CCN(C(c2nnnn2C2CCCCC2)C2CC2)CC1` (centres undefined), the AC50 is 11.1 µM.

With `COc1ccccc1N1CCN(/N=C/C=C\c2ccccc2[N+](=O)[O-])CC1`, the “activity change, negative = inhibition” value is “inactive”.

With `Cc1cccc(Nc2cc(C)c3c(O)cccc3n2)c1C`, the “activity change, negative = inhibition” value was “inactive”.

With `Cc1ncc(CO)c(/C=N/NC(=S)Nc2ccc(Cl)c(Cl)c2)c1O`, the AC50 is 5.79 µM.

On to `O=c1c2ccccc2nc(/C=C/c2cccnc2)n1Cc1ccccc1`, for which the “activity change, negative = inhibition” value was “inactive”.

As for `CCn1c(C)c(C(C)=O)c(N2CCN(c3ccc(OC)cc3)CC2)nc1=S`, the “activity change, negative = inhibition” value is “inactive”.

As for `O=C(N/N=C/c1cc(Cl)cc([N+](=O)[O-])c1O)c1cccc(S(=O)(=O)N2CCOCC2)c1`, the “activity change, negative = inhibition” value was “inactive”.

On to `CCc1cccc(NC(=O)CCCCCC2NC(=O)NC2C)c1` (centres undefined), for which the AC50 was under 0.08 µM.

Regarding `COc1ccc(N=C2S/C(=C\c3ccc(Cl)c([N+](=O)[O-])c3)C(=O)N2CCN(C)C)cc1`, the “activity change, negative = inhibition” value is “inactive”.

As to `Cc1c(C(=O)NCC(c2ccco2)N(C)C)oc2c(Cl)cccc12` (centres undefined), the concentration at half-maximal activity (AC50) is 7.77 µM.

For the compound `C#CCOCCOCCOCCNc1nc(N2CCN(C(=O)[C@H](CCCN=C(N)N)n3cc(C(N)[C@@H](C)CC)nn3)CC2)nc(N2CCN(C(=O)[C@H](CCCCN)n3cc([C@@H](N)[C@H](C)CC)nn3)CC2)n1` (some centres undefined), the AC50 was 3.6 µM.

Regarding `CCN(CC)c1ccc(CNc2nc3ccccc3n2CCN2CCCCC2)cc1`, the AC50 is 5.83 µM.

Regarding `CC1C/C(=C/c2cccs2)C(=O)/C(=C/c2cccs2)C1` (centres undefined), the “activity change, negative = inhibition” value is “inactive”.

Take `CCN1C(=O)/C(=C\C(=O)c2cccs2)c2cc(Br)ccc21`: the “activity change, negative = inhibition” value was “inactive”.

As for `COCCCNCC(O)COc1cccc2[nH]c(C)cc12` (centres undefined), the “activity change, negative = inhibition” value was “inactive”.

As for `CCCCCc1cc(=O)oc2c(C(CCN3CCCC3)c3ccc(N(C)C)cc3)c(OC)cc(OC)c12` (centres undefined), the AC50 is 2.31 µM.

`NC(N)=N/N=C/c1cn(-c2ccccc2)nc1-c1cccs1`: the AC50 was 3.92 µM.

For `CCN1CCN(Cc2ccc(NC(=O)c3cc(NC(=O)c4nccnc4N)cc(OC)c3)cc2C(F)(F)F)CC1`, the “activity change, negative = inhibition” value is “inactive”.

For the compound `C(=C\c1ccncc1)/c1ccncc1`, the “activity change, negative = inhibition” value was “inactive”.

With `COc1ccc(-c2oc3ccccc3c(=O)c2OC(C)=O)cc1`, the “activity change, negative = inhibition” value was “inactive”.

As for `C#CCOCCOCCOCCNc1nc(N2CCN(C(=O)[C@H](CCCCN)n3cc([C@@H](N)[C@H](C)CC)nn3)CC2)nc(N2CCN(C(=O)[C@H](CCC(=O)O)n3cc([C@@H](N)CCCCN)nn3)CC2)n1`, the “activity change, negative = inhibition” value was “inactive”.

Regarding `COc1ccc(-c2ccc3[nH]c4c(c3c2)CCN2C[C@H]3[C@H](C)ON(C)[C@H]3C[C@@H]42)cc1`, the “activity change, negative = inhibition” value was “inactive”.

For the compound `C[C@H](CO)N1C[C@H](C)[C@H](CN(C)Cc2ccc(C(F)(F)F)cc2)OCCCC[C@H](C)Oc2ccc(N(C)C)cc2C1=O`, the “activity change, negative = inhibition” value was “inactive”.

As for `CN(C)c1ccc2nc3ccc(=O)cc-3sc2c1`, the AC50 was 11.3 µM.

Consider `O=C1c2cccc(NCCNCCO)c2C(=O)c2cccc(NCCNCCO)c21`, for which the AC50 is 6.88 µM.

On to `C[C@H](CO)N1C[C@H](C)[C@H](CN(C)Cc2ccc(Cl)c(Cl)c2)Oc2ccc(N(C)C)cc2C1=O`, for which the “activity change, negative = inhibition” value was “inactive”.

Turning to `CCc1ccc(OCCNc2cc(N3CCNC(C)C3)ccc2[N+](=O)[O-])cc1` (centres undefined), the “activity change, negative = inhibition” value was “inactive”.

Regarding `Oc1cc2c(cc1O)C1c3ccc(O)c(O)c3OCC1(O)C2` (centres undefined), the “activity change, negative = inhibition” value was “inactive”.

`N=C(N)c1ccc(/C=C/c2ccc(C(=N)N)cc2O)cc1`: the AC50 is 3.33 µM.

As to `CN1CCN(c2ccc(S(=O)(=O)N3CCCCC3)cc2NC(=O)/C=C/c2ccc(Cl)c([N+](=O)[O-])c2)CC1`, the “activity change, negative = inhibition” value is “inactive”.

Consider `CC[n+]1c(/C=C/c2ccc(N(C)C)cc2)ccc2ccccc21`, for which the AC50 is 8.28 µM.

Regarding `Cc1ccnc(NC(c2cccnc2)c2ccc3cccnc3c2O)c1` (centres undefined), the AC50 was 0.808 µM.

`CN1CCN(C(c2ccc(Br)cc2)c2cc(Cl)c3cccnc3c2O)CC1` (centres undefined): the AC50 was 1.47 µM.

For the compound `Oc1ccccc1C=NCCCCCCN=Cc1ccccc1O`, the “activity change, negative = inhibition” value was “inactive”.

Turning to `CC1=NN(c2ccccc2)C(=O)/C1=C/C=C/c1ccc(N(C)C)cc1`, the “activity change, negative = inhibition” value was “inactive”.

For `c1ccc(N=Nc2ccc3cccccc2-3)cc1`, the AC50 is 0.232 µM.

`CCN(CC)c1ccc(N=C2C(=O)Nc3ccccc32)cc1`: the concentration at half-maximal activity (AC50) was 2.77 µM.

For `Nc1[nH]n(-c2ccccc2)c(=O)c1N=Nc1ccc2c(c1)OCCO2`, the “activity change, negative = inhibition” value was “inactive”.

Consider `Oc1cc(Nc2cccnc2)cc2cccnc12`, for which the AC50 is 6.03 µM.

In the case of `CCN(CC)c1ccc(C(=C2C=CC(=[N+](CC)CC)C=C2)c2ccc(N(CC)CC)cc2)cc1`, the half-maximal activity concentration (AC50) was 0.153 µM.

Consider `C[C@@H]1CN([C@@H](C)CO)C(=O)Cc2cc(N(C)C)ccc2O[C@H]1CN(C)Cc1ccc(Cl)c(Cl)c1`, for which the “activity change, negative = inhibition” value is “inactive”.

As for `O=C(NN1C(=O)/C(=C/c2ccc(O)c(O)c2)SC1=S)c1ccccc1`, the “activity change, negative = inhibition” value is “inactive”.

`CC[C@H](C)[C@@H]1NC(=O)c2cc([N+](=O)[O-])cc(F)c2NCCCC[C@@H](C(N)=O)NC(=O)[C@H](CCCCN)NC1=O`: the half-maximal activity concentration (AC50) was 9.36 µM.

Turning to `COc1ccc2[nH]c(C)c(CCNCc3cn(C)c4ccccc34)c2c1`, the AC50 was 6.85 µM.

For the compound `COc1ccc(N2CCN(c3cc(C)nc4ccc(OC)cc34)CC2)cc1`, the “activity change, negative = inhibition” value was “inactive”.

`CCN1/C(=C/C(C)=C/c2sc3ccccc3[n+]2CC)Sc2ccccc21`: the AC50 was 5.6 µM.

Consider `Nc1ccc(O)c2c1C(=O)c1ccccc1C2=O`, for which the “activity change, negative = inhibition” value was “inactive”.

With `COc1ccc(C(CCNCc2ccc(N(C)C)cc2)c2ccccc2OC)cc1` (centres undefined), the AC50 was 6.09 µM.

Take `C#CCOCCOCCOCCNc1nc(N2CCN(C(=O)[C@H](CCCCN)n3cc([C@@H](N)CC(N)=O)nn3)CC2)nc(N2CCN(C(=O)[C@H](CCCCN)n3cc([C@@H](N)CC(N)=O)nn3)CC2)n1`: the AC50 is 6.87 µM.

Take `CCN(Cc1ccccc1)c1ccc(/C=N/N=C(N)N)cc1`: the AC50 is 4.43 µM.

As to `CN1\C(=C/C=C/C=C/C=[N+](C)C)C(C)(C)c2ccccc21`, the AC50 was 9.97 µM.

For the compound `Cc1c(C)n(Cc2ccccc2)c2ccc(C(=O)OCCN(C)C)cc12`, the “activity change, negative = inhibition” value is “inactive”.

Turning to `CN1CCN(c2ccc(N)cc2Cl)CC1`, the AC50 was 2.11 µM.

`CN(C)c1ccc(/C=C/c2cc[n+](C)c3ccccc23)cc1`: the AC50 was 1.05 µM.

For the compound `NC(=NCCCCCCN=C(N)/N=C(\N)Nc1ccc(Cl)cc1)/N=C(\N)Nc1ccc(Cl)cc1`, the half-maximal activity concentration (AC50) was 5.27 µM.

With `CCN(CC)c1ccc(N=Cc2ccc([N+](=O)[O-])o2)cc1`, the “activity change, negative = inhibition” value was “inactive”.

As for `CC(C)Nc1ccc(Nc2ccnc3cc4ccccc4cc23)cc1`, the AC50 was 2.45 µM.

For `CC1Cc2ccccc2N1C(=O)c1ccc(N2CCCC2)c([N+](=O)[O-])c1` (centres undefined), the “activity change, negative = inhibition” value was “inactive”.

Consider `CNC[C@H](Cc1ccccc1)NC[C@@H](Cc1cccc2ccccc12)NCCc1ccc(C)cc1`, for which the AC50 is 10.1 µM.

On to `COc1ccccc1N(C(C)=O)C1=C(Cl)C(=O)c2ccccc2C1=O`, for which the AC50 is 7.96 µM.

Take `COc1cc(O)c(C(CCN2CCCCC2)c2ccc(N(C)C)cc2)c(OC)c1` (centres undefined): the AC50 was 10.2 µM.

With `CCOC(=O)/C(C#N)=C/c1c(N2CCN(Cc3ccc4c(c3)OCO4)CC2)nc2c(C)cccn2c1=O`, the “activity change, negative = inhibition” value was “inactive”.

For `CN(C)c1ccc(C=c2c3ccccc3n3c2c2ccccc2[n+]3C)cc1`, the AC50 was 1.65 µM.

Regarding `CC(C)(C)OC(=O)N1CCCN(C(c2ccnc3ccccc23)c2nnnn2-c2ccc3c(c2)OCCO3)CC1` (centres undefined), the AC50 is 0.312 µM.

`Cc1oc(-c2cccc3ccccc23)nc1CN1CCN(c2ncnc3ccccc23)CC1`: the “activity change, negative = inhibition” value was “inactive”.

On to `CN(C)CCCNC(=O)c1ccc(-c2cc(O)c3ncccc3c2)cc1`, for which the AC50 was 0.693 µM.

With `CCN(CC)c1ccc(CNc2ccc3c(c2)ncn3C(C)(C)C)cc1`, the AC50 was 3.48 µM.

Take `Oc1c(C(c2ccccc2Cl)N2CCCC2)ccc2cccnc12` (centres undefined): the AC50 was 0.995 µM.

`CCCCOc1ccc2c(c1)C(=O)c1cc(O)ccc1-2`: the “activity change, negative = inhibition” value is “inactive”.

For `COc1ccccc1N1CCN(/N=C/c2cccc(Cl)c2)CC1`, the “activity change, negative = inhibition” value is “inactive”.

With `CN(C)CCCNC(=S)NCC(c1ccc(Cl)cc1Cl)c1c[nH]c2ccccc12` (centres undefined), the AC50 was 10.7 µM.

By AC50 is commonly meant the concentration giving half of the maximal activity seen.
